Values quoted from earlier work as cited in patent US20240360061A1, “Synthetic Cannabinoid Compounds, Pharmaceutical Compositions, and Treatment Methods” (Miralogx LLC, priority 2022, published 2024).

What was measured:
[1] = oral THC 15 mg; compared with salbutamol, isoprenaline
[2] = 2.5 to 5 mg THC, three patients
[3] = several clinical studies
[4] = Type-2 diabetes; cited from J. Cannabis Research (2020) 2:6

SMILES | anti-asthmatic (bronchodilator) effect [1] | effect on pruritus due to liver diseases [2] | mood in reactive depression [3] | Homeostasis Model Assessment (HOMA2) of pancreatic β-cell function [4] | fasting plasma glucose [4]
CCCCCc1cc(O)c2c(c1)OC(C)(C)[C@@H]1CCC(C)=C[C@@H]21 [THC, tetrahydrocannabinol] | approximately correspond to those obtained with therapeutic doses of common bronchodilator drugs | effective | improvement of mood |  | 
CCCc1cc(O)c2c(c1)OC(C)(C)[C@@H]1CCC(C)=C[C@@H]21 [THCV, Δ9-Tetrahydrocannabivarin] |  |  |  | improve | significantly decrease
